According to PMC8058351, “Discovery of Kasugamycin as a Potent Inhibitor of Glycoside Hydrolase Family 18 Chitinases” (Frontiers in Molecular Biosciences, 2021):

What was measured:
[1] = target: T1, AMCase (Homo sapiens, UniProt Q9BZP6); test: Inhibitory activity determination with MU-β-(GlcNAc)2, Dixon plots; assay type: biochemical
T1 construct: the catalytic domains of OfChtI from Ostrinia furnacalis (O. furnacalis), human HsCht and acidic mammalian chitinase (AMCase); made in house; host or cells: Pichia pastoris GS115 (secreted)
Description: (§1) The recombinant GH18 chitinases for inhibitory activity evaluation including OfChi-h and the catalytic domains of OfChtI from Ostrinia furnacalis (O. furnacalis), human HsCht and acidic mammalian chitinase (AMCase) were extracellularly expressed in Pichia pastoris GS115. SmChiA from Serratia marcescens was expressed in Escherichia coli BL21 (DE3). All the proteins were purified from the culture medium by immobilized metal affinity chromatography (IMAC) as described previously ([Chen et al., 2014]). The purities of the target proteins were analyzed by SDS-PAGE followed by Coomassie Brilliant Blue R-250 staining.
(§2) 20 nM enzyme was incubated with 10 μL substrate [0.2 μM MU-β-(GlcNAc)2] in 20 mM sodium phosphate buffer (pH 6.0 for OfChi-h, OfChtI, HsCht and SmChiA, and pH 5.2 for AMCase) containing 2 μL inhibitor at 30°C. The reaction in the absence of inhibitor and substrate was used as the control. After 30 min, an equal volume of 0.5 M Na2CO3 was added to the reaction mixture to stop the reaction, and the fluorescence of the released MU was quantitated using an Infinite® 200 PRO microplate reader (Tecan, Swiss) with excitation and emission wavelengths of 360 and 450 nm, respectively. Experiments were performed in triplicate. For the determination of the mode of inhibition and the inhibition constant (K i) value, the reaction mixtures contained three MU-β-(GlcNAc)2 concentrations (5, 10 and 20 μM for OfChi-h, AMCase and SmChiA; 5, 7.5 and 10 μM for HsCht; and 1, 2 and 4 μM for OfChtI). The inhibitor concentration varied according to the inhibitory activity. The Ki values and types of inhibition were determined by linear fitting of data in Dixon plots.

[2] = target: T2, HsCht (Homo sapiens, UniProt Q13231); test: as above; assay type: biochemical
T2 construct: the catalytic domains of OfChtI from Ostrinia furnacalis (O. furnacalis), human HsCht and acidic mammalian chitinase (AMCase); made in house; host or cells: Pichia pastoris GS115 (secreted)
Description: as §1, §2

[3] = target: T3, OfChi-h (Ostrinia furnacalis, UniProt Q4AE59); test: as above; assay type: biochemical
T3 construct: made in house; host or cells: Pichia pastoris GS115 (secreted)
Description: as §1, §2

[4] = target: T4, OfChtI (Ostrinia furnacalis, UniProt Q2V6H4); test: as above; assay type: biochemical
Description: as §1, §2

[5] = target: T5, SmChiA (Serratia marcescens, UniProt P07254); test: as above; assay type: biochemical
T5 construct: made in house; host or cells: Escherichia coli BL21 (DE3)
Description: as §1, §2

[6] = target: T1, AMCase; test: Tryptophan fluorescence quenching spectroscopy; assay type: binding
Description: as §1
(§3) All tryptophan fluorescence spectroscopy experiments were performed using the Infinite® 200 PRO microplate reader (Tecan, Swiss). The excitation wavelength was fixed to 285 nm and emission spectra were collected between 320 and 450 nm with a slit width of 2 nm. The temperature was maintained at 30°C. Fluorescence quenching experiments were performed in a 100 μL mixture containing 1 μM protein in the 20 mM sodium phosphate buffer (pH 6.0 for OfChi-h, OfChtI, HsCht and SmChiA, and pH 5.2 for AMCase), and by the successive addition of 1 μL compounds stock solution. The inhibitor concentration varied according to the enzyme activity. The dissociation constant (K d) value was analyzed by nonlinear regression with the “One Site-Specific Binding” model using GraphPad Prism 7.04.

[7] = target: T2, HsCht; test: Tryptophan fluorescence quenching spectroscopy; assay type: binding
Description: as §1, §3

[8] = target: T3, OfChi-h; test: Tryptophan fluorescence quenching spectroscopy; assay type: binding
Description: as §1, §3

[9] = target: T4, OfChtI; test: Tryptophan fluorescence quenching spectroscopy; assay type: binding
Description: as §1, §3

[10] = target: T5, SmChiA; test: Tryptophan fluorescence quenching spectroscopy; assay type: binding
Description: as §1, §3

T3 sequence (Q4AE59 18-553): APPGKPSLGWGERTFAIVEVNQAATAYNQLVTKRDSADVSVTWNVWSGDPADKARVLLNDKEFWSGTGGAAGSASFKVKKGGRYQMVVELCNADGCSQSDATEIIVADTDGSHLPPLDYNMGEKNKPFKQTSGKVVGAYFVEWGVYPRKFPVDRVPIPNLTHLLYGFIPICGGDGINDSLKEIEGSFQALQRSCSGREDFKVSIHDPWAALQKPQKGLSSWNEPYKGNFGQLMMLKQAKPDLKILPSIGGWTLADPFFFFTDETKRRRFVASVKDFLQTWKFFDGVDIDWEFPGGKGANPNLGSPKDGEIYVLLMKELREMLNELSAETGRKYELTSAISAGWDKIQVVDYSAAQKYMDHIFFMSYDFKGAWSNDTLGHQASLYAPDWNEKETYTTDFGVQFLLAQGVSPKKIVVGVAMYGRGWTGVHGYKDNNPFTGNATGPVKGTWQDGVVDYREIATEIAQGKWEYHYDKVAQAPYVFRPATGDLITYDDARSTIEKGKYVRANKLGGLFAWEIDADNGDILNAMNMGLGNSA
T2 sequence (Q13231 22-388 limits assumed): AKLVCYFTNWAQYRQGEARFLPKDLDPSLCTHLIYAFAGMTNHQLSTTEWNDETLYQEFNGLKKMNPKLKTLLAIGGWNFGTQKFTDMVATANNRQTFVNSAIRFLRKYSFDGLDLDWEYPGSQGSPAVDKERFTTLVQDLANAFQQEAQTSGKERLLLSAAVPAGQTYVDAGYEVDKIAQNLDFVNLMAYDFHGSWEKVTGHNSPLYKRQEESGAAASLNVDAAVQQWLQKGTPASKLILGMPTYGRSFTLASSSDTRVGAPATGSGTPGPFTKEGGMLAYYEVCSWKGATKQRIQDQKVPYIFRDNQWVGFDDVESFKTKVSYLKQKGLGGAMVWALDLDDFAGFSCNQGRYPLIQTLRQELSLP
T4 sequence (Q2V6H4 19-407): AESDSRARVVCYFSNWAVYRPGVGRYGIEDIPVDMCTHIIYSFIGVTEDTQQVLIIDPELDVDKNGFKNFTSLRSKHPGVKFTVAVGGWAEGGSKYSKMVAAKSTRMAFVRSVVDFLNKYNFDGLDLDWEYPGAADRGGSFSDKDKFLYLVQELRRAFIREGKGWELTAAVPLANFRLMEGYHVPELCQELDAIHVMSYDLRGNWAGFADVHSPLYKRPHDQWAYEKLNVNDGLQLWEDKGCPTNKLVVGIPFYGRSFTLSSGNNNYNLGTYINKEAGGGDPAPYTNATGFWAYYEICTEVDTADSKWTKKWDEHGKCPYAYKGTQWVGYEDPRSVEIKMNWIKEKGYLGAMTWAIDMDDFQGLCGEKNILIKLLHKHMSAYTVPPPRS
T5 sequence (P07254 24-563): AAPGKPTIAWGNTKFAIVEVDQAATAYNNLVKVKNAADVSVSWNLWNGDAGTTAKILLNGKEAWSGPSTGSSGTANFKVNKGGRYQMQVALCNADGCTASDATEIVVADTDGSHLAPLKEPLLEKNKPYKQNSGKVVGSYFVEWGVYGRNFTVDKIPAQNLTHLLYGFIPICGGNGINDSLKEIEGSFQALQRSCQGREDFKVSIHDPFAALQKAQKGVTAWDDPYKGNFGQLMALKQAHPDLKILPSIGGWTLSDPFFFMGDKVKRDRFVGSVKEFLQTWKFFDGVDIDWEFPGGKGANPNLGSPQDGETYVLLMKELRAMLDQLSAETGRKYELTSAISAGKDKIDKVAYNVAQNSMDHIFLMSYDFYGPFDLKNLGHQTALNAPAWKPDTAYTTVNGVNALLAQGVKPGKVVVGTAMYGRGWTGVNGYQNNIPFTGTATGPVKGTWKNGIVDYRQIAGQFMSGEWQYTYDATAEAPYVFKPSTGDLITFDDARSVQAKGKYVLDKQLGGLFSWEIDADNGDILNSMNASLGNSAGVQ
T1 sequence (Q9BZP6 22-390 limits assumed): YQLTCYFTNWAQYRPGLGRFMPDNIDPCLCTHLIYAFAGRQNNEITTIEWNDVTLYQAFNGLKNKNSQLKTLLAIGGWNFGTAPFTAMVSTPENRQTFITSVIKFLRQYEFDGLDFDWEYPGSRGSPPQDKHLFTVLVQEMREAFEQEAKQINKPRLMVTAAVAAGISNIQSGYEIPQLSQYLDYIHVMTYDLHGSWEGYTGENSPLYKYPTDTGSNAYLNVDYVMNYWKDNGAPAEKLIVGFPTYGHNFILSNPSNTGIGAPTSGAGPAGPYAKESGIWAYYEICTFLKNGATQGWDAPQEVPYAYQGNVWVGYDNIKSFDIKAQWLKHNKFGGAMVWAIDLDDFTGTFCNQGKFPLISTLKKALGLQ

`C[C@H]1O[C@H](O[C@H]2[C@H](O)[C@@H](O)[C@@H](O)[C@H](O)[C@@H]2O)[C@@H](N)C[C@@H]1NC(=N)C(=O)O` [kasugamycin, Kasugamycin] was tested, and the Ki [1] was 6.27 µM, the mode of inhibition ([1]; AMCase, inhibition kinetics) was “competitive” and the “increase of K i in buffer containing 1.0 M NaCl” value ([2]; 1.0 M NaCl vs. standard buffer) was 6 fold. For the same compound, the Ki ([2]; K i in the buffer with 1.0 M NaCl, buffer containing 1.0 M NaCl) was 1.62 µM, the Ki ([2]; K i, 20 mM sodium phosphate buffer pH 6.0, 30°C) was 0.25 µM and the mode of inhibition ([2]; inhibition kinetics) was “competitive”. For the same compound, the Ki [3] was 2.7 µM, the mode of inhibition ([3]; OfChi-h, inhibition kinetics) was “competitive” and the Ki [4] was 0.47 µM. For the same compound, the mode of inhibition ([4]; OfChtI, inhibition kinetics) was “competitive”, the inhibition at 10 µM ([4]; at 10 μM, preliminary screening of a natural products library, read-out: inhibition against OfChtI) was 92.5% and the Ki [5] was 29 µM. The mode of inhibition ([5]; SmChiA, inhibition kinetics) was “competitive”, the Kd [6] was 15.8 µM and the Kd [7] was 0.92 µM. For the same compound, the Kd [8] was 11.5 µM, the Kd [9] was 3.96 µM and the Kd [10] was 34.1 µM.
